Reference: ChEMBL document CHEMBL5532655, “Discovery of (R)-4-(8-methoxy-2-methyl-1-(1-phenylethy)-1H-imidazo[4,5-c]quinnolin-7-yl)-3,5-dimethylisoxazole as a potent and selective BET inhibitor for treatment of acute myeloid leukemia (AML) guided by FEP calculation” (Eur J Med Chem, 2024)
Blank lines part the entries; values can stand above or below the compound they belong to. Activity calls are given as the source filed them. The rule behind the calls is not given here.

Key:
[1] = biological target: Bromodomain testis-specific protein (Homo sapiens) (UniProt Q58F21); conditions: time 30.0 min
[2] = Volume of distribution at steady state in Sprague-Dawley rat at 1 mg/kg,iv administration measured upto 24 hrs by LC-MS/MS analysis; format: ADME, organism-based; conditions: in vivo, read-out: Vdss
[3] = Clearance in Sprague-Dawley rat at 1 mg/kg,iv administration measured upto 24 hrs by LC-MS/MS analysis; format: ADME, organism-based; conditions: in vivo
[4] = AUC (0-infinity) in Sprague-Dawley rat at 1 mg/kg,iv administration measured upto 24 hrs by LC-MS/MS analysis; format: ADME, organism-based; conditions: in vivo
[5] = AUC (0-t) in Sprague-Dawley rat at 10 mg/kg,po administration measured upto 24 hrs by LC-MS/MS analysis; format: ADME, organism-based; conditions: in vivo
[6] = AUC (0-infinity) in Sprague-Dawley rat at 10 mg/kg,po administration measured upto 24 hrs by LC-MS/MS analysis; format: ADME, organism-based; conditions: in vivo
[7] = Apparent volume of distribution during terminal phase in Sprague-Dawley rat at 10 mg/kg,po administration measured upto 24 hrs by LC-MS/MS analysis; format: ADME, organism-based; conditions: in vivo, read-out: Vz/F
[8] = Tmax in Sprague-Dawley rat at 10 mg/kg,po administration measured upto 24 hrs by LC-MS/MS analysis; format: ADME, organism-based; conditions: in vivo
[9] = Oral bioavailability in Sprague-Dawley rat at 10 mg/kg measured upto 24 hrs by LC-MS/MS analysis; format: ADME, organism-based; conditions: in vivo
[10] = system: MV4-11; experiment: Induction of apoptosis in human MV4-11 cells assessed as viable cells at 1.25 uM incubated for 24 hrs by annexin V-FITC/PI staining based flow cytometric analysis (reference value: 97%); format: functional; conditions: Homo sapiens, MV4-11, read-out: Activity
[11] = system: MV4-11; experiment: Induction of apoptosis in human MV4-11 cells assessed as viable cells at 2.5 uM incubated for 24 hrs by annexin V-FITC/PI staining based flow cytometric analysis (reference value: 97%); format: functional; conditions: Homo sapiens, MV4-11, read-out: Activity
[12] = system: MV4-11; experiment: Induction of apoptosis in human MV4-11 cells assessed as viable cells at 5 uM incubated for 24 hrs by annexin V-FITC/PI staining based flow cytometric analysis (reference value: 97%); format: functional; conditions: Homo sapiens, MV4-11, read-out: Activity
[13] = system: MV4-11; experiment: Induction of apoptosis in human MV4-11 cells assessed as viable cells at 10 uM incubated for 24 hrs by annexin V-FITC/PI staining based flow cytometric analysis (reference value: 97%); format: functional; conditions: Homo sapiens, MV4-11, read-out: Activity
[14] = system: MV4-11; experiment: Induction of apoptosis in human MV4-11 cells assessed as early apoptotic cells at 5 uM incubated for 24 hrs by annexin V-FITC/PI staining based flow cytometric analysis (reference value: 0%); format: functional
[15] = system: MV4-11; experiment: Induction of apoptosis in human MV4-11 cells assessed as late apoptotic cells at 1.25 uM incubated for 24 hrs by annexin V-FITC/PI staining based flow cytometric analysis (reference value: 0.04 %); format: functional
[16] = system: MV4-11; experiment: Induction of apoptosis in human MV4-11 cells assessed as late apoptotic cells at 10 uM incubated for 24 hrs by annexin V-FITC/PI staining based flow cytometric analysis (reference value: 0.04 %); format: functional
[17] = system: MV4-11; experiment: Induction of apoptosis in human MV4-11 cells assessed as necrotic cells at 0.625 uM incubated for 24 hrs by annexin V-FITC/PI staining based flow cytometric analysis (reference value: 2.35 %); format: functional
[18] = system: MV4-11; experiment: Induction of apoptosis in human MV4-11 cells assessed as necrotic cells at 2.5 uM incubated for 24 hrs by annexin V-FITC/PI staining based flow cytometric analysis (reference value: 2.35 %); format: functional
[19] = system: MV4-11; experiment: Induction of apoptosis in human MV4-11 cells assessed as necrotic cells at 5 uM incubated for 24 hrs by annexin V-FITC/PI staining based flow cytometric analysis (reference value: 2.35 %); format: functional
[20] = system: MV4-11; experiment: Induction of apoptosis in human MV4-11 cells assessed as necrotic cells at 10 uM incubated for 24 hrs by annexin V-FITC/PI staining based flow cytometric analysis (reference value: 2.35 %); format: functional
[21] = system: MV4-11; experiment: Induction of cell cycle arrest in human MV4-11 cells assessed as accumulation of cells at G0/G1 phase at 0.625 uM incubated for 24 hrs by propidium iodide staining flow cytometric analysis (reference value: 37.64 %); format: functional
[22] = system: MV4-11; experiment: Induction of cell cycle arrest in human MV4-11 cells assessed as accumulation of cells at G0/G1 phase at 1.25 uM incubated for 24 hrs by propidium iodide staining flow cytometric analysis (reference value: 37.64 %); format: functional
[23] = system: MV4-11; experiment: Induction of cell cycle arrest in human MV4-11 cells assessed as accumulation of cells at G0/G1 phase at 2.5 uM incubated for 24 hrs by propidium iodide staining flow cytometric analysis (reference value: 37.64 %); format: functional
[24] = system: MV4-11; experiment: Induction of cell cycle arrest in human MV4-11 cells assessed as accumulation of cells at G0/G1 phase at 5 uM incubated for 24 hrs by propidium iodide staining flow cytometric analysis (reference value: 37.64 %); format: functional
[25] = system: MV4-11; experiment: Induction of cell cycle arrest in human MV4-11 cells assessed as accumulation of cells at G2/M phase at 0.3125 uM incubated for 24 hrs by propidium iodide staining flow cytometric analysis (reference value: 18 %); format: functional
[26] = system: MV4-11; experiment: Induction of cell cycle arrest in human MV4-11 cells assessed as accumulation of cells at G2/M phase at 0.625 uM incubated for 24 hrs by propidium iodide staining flow cytometric analysis (reference value: 18 %); format: functional
[27] = system: MV4-11; experiment: Induction of cell cycle arrest in human MV4-11 cells assessed as accumulation of cells at G2/M phase at 2.5 uM incubated for 24 hrs by propidium iodide staining flow cytometric analysis (reference value: 18 %); format: functional
[28] = system: MV4-11; experiment: Induction of cell cycle arrest in human MV4-11 cells assessed as accumulation of cells at S phase at 0.3125 uM incubated for 24 hrs by propidium iodide staining flow cytometric analysis (reference value: 43.94 %); format: functional
[29] = system: MV4-11; experiment: Induction of cell cycle arrest in human MV4-11 cells assessed as accumulation of cells at S phase at 0.625 uM incubated for 24 hrs by propidium iodide staining flow cytometric analysis (reference value: 43.94 %); format: functional
[30] = system: MV4-11; experiment: Induction of cell cycle arrest in human MV4-11 cells assessed as accumulation of cells at S phase at 2.5 uM incubated for 24 hrs by propidium iodide staining flow cytometric analysis (reference value: 43.94 %); format: functional
[31] = system: MV4-11; experiment: Induction of apoptosis in human MV4-11 cells assessed as downregulation of CDK6 expression at 0.3125 to 2.5 uM incubated for 48 hrs by Western blotting analysis; format: functional, cell-based; conditions: dose 0.3125-2.5 µM
[32] = system: MV4-11; experiment: Induction of apoptosis in human MV4-11 cells assessed as upregulation of PARP expression at 0.3125 to 2.5 uM incubated for 48 hrs by Western blotting analysis; format: functional, cell-based; conditions: dose 0.3125-2.5 µM
[33] = system: MV4-11; experiment: Induction of apoptosis in human MV4-11 cells assessed as upregulation of cleaved PARP expression at 500 nM hrs by Western blotting analysis; format: functional, cell-based; conditions: TDE = time-dependent effect
[34] = system: MV4-11; experiment: Antitumor activity against human MV4-11 cells xenografted in BALB/c mouse assessed as tumor growth inhibition at 30 mg/kg administration relative to control; format: functional; conditions: read-out: TGI

ΔTm [1]: 5 °C
SMILES: COc1cc2c(cc1-c1c(C)n[nH]c1C)ncc1nc(C)n([C@H](C)c3ccccc3)c12

Vd [2]: 0.6 L/kg
clearance [3]: 12.1 mL/min/kg
AUC(0-inf) [4]: 1400 ng·h/mL
AUC(0-t) at 24 h [5]: 16000 ng·h/mL
AUC(0-inf) [6]: 16000 ng·h/mL
Vd/F [7]: 2.39 L/kg
Tmax [8]: 1 h
bioavailability [9]: 114%
SMILES: COc1cc2c(cc1-c1c(C)noc1C)ncc1nc(C)n([C@H](C)c3ccccc3)c12
viability at 1.25 µM [10]: 83.1%
viability at 2.5 µM [11]: 81.7%
viability at 5 µM [12]: 78.4%
viability at 10 µM [13]: 73.5%
Activity [14]: 8.46%
Activity [15]: 6.32%
Activity [16]: 11.62%
Activity [17]: 6%
Activity [18]: 8%
Activity [19]: 8%
Activity [20]: 8%
Activity [21]: 61.2%
Activity [22]: 71.52%
Activity [23]: 72.14%
Activity [24]: 78.57%
Activity [25]: 6.33%
Activity [26]: 16.18%
Activity [27]: 7.33%
Activity [28]: 44.55%
Activity [29]: 44.55%
Activity [30]: 20.35%
Activity [31]: Active
Activity [32]: Active
Activity [33]: Tde
inhibition in vivo at 30 mg/kg [34]: 55.1%
